The source of these data is patent publication US20230069886A1, “AROMATIC SULPHONAMIDES DERIVATIVES THAT INHIBITS PDI A3, THEIR SYNTHESIS AND USE” (Uniwersytet Jagiellonski, priority 2020, published 2023).

≈ marks a conversion by molar mass, not a printed value.

One may read the IC50 as the concentration at which inhibition is half-maximal.

One data set concerns MDA-MB-231. Put plainly: MTT antiproliferative assay, 72 h, with or without estradiol, MDA-MB-231. It is filed as cell-based, human. How it is done:
Anticancer activity of selected compounds of invention, PDI A3-inhibitors has been also tested in vitro in antiproliferative assay in normoxic and hypoxic conditions as well in estrogen-stimulated cancer cells. In the experiment, cells were seeded on 96-well plates (Sarstedt, Germany) in appropriate culture medium at a density of 10^5 cells/mL 24 h before adding the tested compounds. Cells were treated with each compound in four concentrations in the range 0.1-100 μg/mL. […] After 72 h of compound treatment at 37° C., 5% CO2 humid atmosphere and in wo different oxygen level conditions: 21%—normal and <1%—hypoxia. In some experiments the MDA-MB-231 and MCF-7 cells were seeded with or without 200 nM estradiol and after 24 h the tested compounds were added. A previously described sulforhodamine B antiproliferative assay was used with minor modifications (Skehan P et al., 1990). Briefly, cells were fixed with 50 μL/well of 50% (w/v) trichloroacetic acid (Avantor Performance Materials, Gliwice, Poland). After 1 h incubation, plates were washed several times with tap water and 50 μL of 0.4% (w/v) solution of sulforhodamine B (Sigma-Aldrich, Germany) in 1% (v/v) acetic acid (Avantor Performance Materials, Gliwice, Poland) was added to each well. After 30 min incubation at room temperature, unbound dye was washed out with 1% (v/v) acetic acid, whereas bound dye was solubilized with 10 mM unbuffered TRIS (Avantor Performance Materials, Gliwice, Poland) solution. The entire procedure was performed using a BioTek EL-406 washing station (BioTek Instruments, USA). After additional 30 min, absorbance was read using a Biotek Hybrid H4 reader (BioTek Instruments, USA) at 540 nm wavelength. MTT assay was used alternatively for HL-60 cell line and in the experiment in which estrogens are added (specified in the table legend). Absorbance was measured using a Biotek Hybrid H4 reader at 570 nm wavelength for MTT assay.
Compounds at each concentration were tested in triplicate in a single experiment and each experiment was repeated at least three times independently. Results are presented as mean IC50±SD.
In general terms: Tetrazolium dyes change colour on reduction, which living cells bring about.

The next data set concerns human platelets. Put plainly: Light transmission aggregometry of collagen-stimulated human platelet-rich plasma. It is filed as cell-based. The settings on record: human PRP, FIG. 2, 3. How it is done: Anti-platelet activity of compounds of invention was assessed using light transmission aggregometry assay of human platelet-rich plasma (PRP). Venous blood was obtained from male volunteers at the University Hospital Blood Bank Centre. Volunteer donors had not taken any medicines for the preceding two weeks. Blood was collected into vials containing sodium citrate (3.2%, 9:1 v/v) as an anti-coagulant agent. To obtain platelet rich plasma (PRP), blood was centrifuged at 260×g for 15 min. The platelet […] plasma fraction (used as a blank sample) was obtained by centrifugation of the remaining blood for 10 min at 2600×g. Aggregation of blood platelets was assessed in PRP with a dual channel Chronolog aggregometer (CHRONO-LOG) using a method previously described by Born^35. PRP (500 μl) was equilibrated for 2 min at 37° C. with a continuous stirring at 800 rpm and then stimulated with collagen to cause aggregation. At the beginning of each experiment, concentrations of collagen that induced sub-maximum aggregation response were determined. These concentrations were in the range of […], respectively. All the tested compounds were added 2 min prior to stimulation of platelets with collagen. Transmittance was read 6 min after stimulation of platelets with an agonist. […]

The test system of a further data set is MCF-7. Put plainly: MTT antiproliferative assay, 48 h, MCF-7. The format is cell-based, human. The settings on record: 48-hour exposition, read-out: Cytotoxicity, IC50, μM MCF-7.

In the case of `COC(=O)C1CN1S(=O)(=O)c1ccc2c(C=O)c(N(C)C)ccc2c1` (centres unmarked) [Compound C-3390, Methyl 1-[[6-(dimethylamino)-5-formyl-2-naphthyl]sulfonyl]aziridine-2-calboxylate], in the data set on MDA-MB-231 (estradiol (200 nM), Table 4), the “Sensitivity of MDA-MB-231 line after treatment with estradiol” value is “slightly lower sensitivity”. In the data set on MDA-MB-231 (not pretreated with estradiol, 72 hours exposition, MTT), the “IC50 [μg/ml] MDA-MB-231 normal” value came out at 3.2 ± 0.2 µg/mL (≈ 8.83 µM). Besides, the “IC50 [μg/ml] MDA-MB-231 +estradiol” value in the data set with MDA-MB-231 (pretreated with 200 nM estradiol, 72 hours exposition, MTT) was determined as 9.4 ± 3.5 µg/mL (≈ 25.9 µM). Moreover, in the data set on human platelets, the “Inhibition of platelet aggregation” value is listed as “lowest EC50”. Besides, the IC50 in the data set with MCF-7 was 20 ± 0.3 µM.
